Patent publication US6124280A, “Substituted phenols as novel calcium channel blockers” (Warner-Lambert Company, priority 1998, dated 2000)
Where a name gives a salt, the structure may show the parent alone. Positions of bridges follow the written chain, without caps; N, C: chain ends. No end group written: not given here.

Tests used:
[1] = molecular target: T1, N-type voltage gated calcium channels (chicken brain synaptosomes) (Gallus gallus, UniProt A0A8V1AJW5); test: Chick Whole Brain Synaptosomal ^45 Calcium Flux Assay (inhibition of potassium stimulated calcium influx); format: biochemical; conditions: 20 mM KCl stimulated minus 3 mM KCl basal; 5 min drug pre-incubation, room temperature; 30-second incubation; read-out: Inhibition of ^45 Ca^+2 Influx in Chick Synaptosomes IC50
T1 construct: K+-stimulated 45Ca influx; auxiliary alpha2delta and beta subunits present but not identified
Protocol: (§1) To measure interaction at the N-type calcium channel and calcium flux inhibition, the effects of the calcium channel blockers were measured in the assays described below.
A compound is assessed at various concentrations for its ability to inhibit this potassium stimulated calcium influx.
One- to five-week old chicks were killed by decapitation and whole brain was removed. The brainstem was discarded, and the remaining brain tissue was placed in ice-cold sucrose buffer (composition: 320 mM sucrose, 5.0 mM TRIS base, 0.1 mM EDTA, pH adjusted to 7.3 with HCl). The total wet weight of pooled brain tissue was determined, and the tissue was homogenized in 10 mL sucrose buffer per gram wet weight. A Potter S-type homogenizer (B. Braun Co.) with a glass tube and teflon pestle was used. Five strokes at 400 rpm were followed by four strokes at 800 rpm. The homogenate was poured into cold centrifuge tubes and centrifuged for 10 minutes at 3000 rpm (1,075 g) in a refrigerated 4° C. RC-5 centrifuge (Sorvall) using an SS-34 rotor. The supernatant was collected and centrifuged at 11,500 rpm (15,800 g) for 10 minutes. The supernatant was discarded, and the pellet was resuspended in 1 mL sucrose buffer. Cold incubation buffer (composition: 1.2 mM MgCl2, 22 mM HEPES, 11 mM glucose, 3 mM KCl, 136 mM choline chloride, pH adjusted to 7.3 with TRIS base) was added slowly to the suspension for a total volume of 30 to 40 mL. This mixture was centrifuged at 7,000 rpm (5,856 g) for 5 minutes. The supernatant was discarded, and the pellet was resuspended in 5 mL of incubation buffer per gram of original wet weight of brain. This synaptosomal suspension was kept on ice until the start of the assay, at which time 35 μL of synaptosome suspension were added to each well of a 96-well filter plate (Millipore) which contained 75 μL incubation buffer with or without drug. Drugs were dissolved in DMSO or H2 O, and the concentration of DMSO was less than or equal to 1%.
Synaptosomes were pre-incubated in the presence or absence of drug for 5 minutes at room temperature before the addition of radioactive calcium. Drugs were present throughout the assay. Two μCi/mL stocks of ^45 CaCl2 were prepared in basal buffer (composition: incubation buffer plus 1 mM CaCl2) and in stimulation buffer (composition: 1.2 mM MgCl2, 22 mM HEPES, 11 mM glucose, 37 mM KCl, 102 mM choline chloride, 1 mM CaCl2, pH adjusted to 7.3 with TRIS base). One hundred microliter of radioactive basal or stimulation buffer were pipetted into a pre-incubated plate of synaptosomes using a Quadra 96 pipetter (Tomtec). The final KCl concentration was 3 mM for the basal condition and 20 mM for the stimulated condition; the final CaCl2 concentration was 0.5 mM with 1 μCi/mL of ^45 CaCl2. The plate was filtered under vacuum after a 30-second incubation with radioactivity. The filters were washed twice with 200 μL of wash buffer (composition: 140 mM choline chloride, 3 mM EGTA, 22 mM HEPES, pH adjusted to 7.3 with TRIS base). Plates were allowed to dry completely. Scintillation fluid was added (20 μL/well), and the plates were counted in a Wallace Microbeta plate counter. Basal ^45 CaCl2 flux (3 mM KCl) was subtracted from stimulated ^45 CaCl2 flux (20 mM KCl) in both control and drug-treated conditions, and data were expressed as percent inhibition of the adjusted control response. Values obtained in this way were plotted as a function of drug concentration and IC50 values were calculated.

[2] = molecular target: T2, N-type calcium channels (IMR-32 cells) (Homo sapiens, UniProt Q00975); test: N-type Ca2+ channel blocking potency in IMR-32 cells using fluorescent Ca2+ indicator Indo-1; format: cell-based; conditions: K+ depolarization, 5 μM nitrendipine present to block L-type channels, 10 min at 30° C., read-out: Inhibition of ^45 Ca^+2 Influx in IMR-32 Cells IC50
T2 construct: host or cells: IMR-32, differentiated with dibutyryl cAMP and bromodeoxyuridine
Protocol: as §1
IMR-2 cells are a human tumoral cell line of neural origin. […] Calcium flux into these cells may be induced by stimulation with elevated potassium concentrations. The L-channel component of calcium flux may be blocked by adding 5 μM nitrendipine. The remaining component of calcium entry into the IMR-32 cells is due to calcium flux through N-type calcium channels. Intracellular calcium concentrations are measured using the fluorescent calcium indicator Indo-1. The effect of drug concentration on calcium uptake is studied.
The IMR-32 cell line was obtained from the American Type Culture Collection (Rockville, Md.). Cells were grown in Eagle's Minimum Essential Medium with Earle's salts supplemented with 10% fetal bovine serum, 2 mM L-Gln and antibiotic/antimicotic mixture (Gibco). At approximately 80% confluency, differentiation was induced by the addition of 1 mM dibutyryl cAMP and 2.5 μM bromodeoxyuridine to the medium. After 7 to 13 days of differentiation, cells were detached using 0.5 mM EDTA and loaded with 5 μM Indo-1 acetoxymethyl ester (Molecular Probes, Eugene, Or.) at 30° C. for 45 minutes. Loaded cells were washed twice, resuspended (~10^7 cells/mL) in assay buffer (10 mM HEPES/Tris pH 7.4 in Hank's Balanced Salt Solution without bicarbonate or phenol red containing 0.5% bovine serum albumin) and kept on ice until use. Fluorescence measurements were carried out in a Photon Technology International (PTI, South Brunswick, N.J.) Model RF-F3004 spectrofluorometer with dual emission monochromators using excitation at 350 nm and emission at 400 and 490 nm. The instrument was equipped with a thermostatted cuvette holder with stirring capabilities as well as with a computer-controlled pump which allowed for reagent addition during measurement. Instrument control and data collection was done by PTI's OSCAR software running on an IBM compatible computer. Different concentrations of the test compounds (60 μL in dimethyl sulfoxide) were added to 5.94 mL of assay buffer containing approximately 3×10^6 loaded cells, and 5 μM Nitrendipine (in 30 μL EtOH) to block L-type Ca^2+ channels. Samples were incubated for 10 minutes at 30° C. and then aliquoted into three 10×10 mm disposable acrylic cuvettes. Emission signals at 400 and 490 nm were acquired from each cuvette at 30° C. for 50 seconds. At 20 seconds after the start of reading, cells were depolarized by the addition of 160 μL of stimulation solution (1M KCl, 68 mM CaCl2) to the cuvette via the computer-controlled pump. Ratio of dual emission signals (400 nm/490 nm), which is proportional to intracellular Ca^2+ concentration, was plotted against time, and the difference between maximal response after stimulation and basal value (before stimulation) was determined. Values obtained in this way were plotted as a function of drug concentration. IC50 values of test compounds were calculated by fitting a 4-parameter logistic function to the data using the least squares method.

N-type calcium channel = conditions: cited: Bowersox et al. 1994; cited from earlier work

T2 sequence (Q00975 whole entry): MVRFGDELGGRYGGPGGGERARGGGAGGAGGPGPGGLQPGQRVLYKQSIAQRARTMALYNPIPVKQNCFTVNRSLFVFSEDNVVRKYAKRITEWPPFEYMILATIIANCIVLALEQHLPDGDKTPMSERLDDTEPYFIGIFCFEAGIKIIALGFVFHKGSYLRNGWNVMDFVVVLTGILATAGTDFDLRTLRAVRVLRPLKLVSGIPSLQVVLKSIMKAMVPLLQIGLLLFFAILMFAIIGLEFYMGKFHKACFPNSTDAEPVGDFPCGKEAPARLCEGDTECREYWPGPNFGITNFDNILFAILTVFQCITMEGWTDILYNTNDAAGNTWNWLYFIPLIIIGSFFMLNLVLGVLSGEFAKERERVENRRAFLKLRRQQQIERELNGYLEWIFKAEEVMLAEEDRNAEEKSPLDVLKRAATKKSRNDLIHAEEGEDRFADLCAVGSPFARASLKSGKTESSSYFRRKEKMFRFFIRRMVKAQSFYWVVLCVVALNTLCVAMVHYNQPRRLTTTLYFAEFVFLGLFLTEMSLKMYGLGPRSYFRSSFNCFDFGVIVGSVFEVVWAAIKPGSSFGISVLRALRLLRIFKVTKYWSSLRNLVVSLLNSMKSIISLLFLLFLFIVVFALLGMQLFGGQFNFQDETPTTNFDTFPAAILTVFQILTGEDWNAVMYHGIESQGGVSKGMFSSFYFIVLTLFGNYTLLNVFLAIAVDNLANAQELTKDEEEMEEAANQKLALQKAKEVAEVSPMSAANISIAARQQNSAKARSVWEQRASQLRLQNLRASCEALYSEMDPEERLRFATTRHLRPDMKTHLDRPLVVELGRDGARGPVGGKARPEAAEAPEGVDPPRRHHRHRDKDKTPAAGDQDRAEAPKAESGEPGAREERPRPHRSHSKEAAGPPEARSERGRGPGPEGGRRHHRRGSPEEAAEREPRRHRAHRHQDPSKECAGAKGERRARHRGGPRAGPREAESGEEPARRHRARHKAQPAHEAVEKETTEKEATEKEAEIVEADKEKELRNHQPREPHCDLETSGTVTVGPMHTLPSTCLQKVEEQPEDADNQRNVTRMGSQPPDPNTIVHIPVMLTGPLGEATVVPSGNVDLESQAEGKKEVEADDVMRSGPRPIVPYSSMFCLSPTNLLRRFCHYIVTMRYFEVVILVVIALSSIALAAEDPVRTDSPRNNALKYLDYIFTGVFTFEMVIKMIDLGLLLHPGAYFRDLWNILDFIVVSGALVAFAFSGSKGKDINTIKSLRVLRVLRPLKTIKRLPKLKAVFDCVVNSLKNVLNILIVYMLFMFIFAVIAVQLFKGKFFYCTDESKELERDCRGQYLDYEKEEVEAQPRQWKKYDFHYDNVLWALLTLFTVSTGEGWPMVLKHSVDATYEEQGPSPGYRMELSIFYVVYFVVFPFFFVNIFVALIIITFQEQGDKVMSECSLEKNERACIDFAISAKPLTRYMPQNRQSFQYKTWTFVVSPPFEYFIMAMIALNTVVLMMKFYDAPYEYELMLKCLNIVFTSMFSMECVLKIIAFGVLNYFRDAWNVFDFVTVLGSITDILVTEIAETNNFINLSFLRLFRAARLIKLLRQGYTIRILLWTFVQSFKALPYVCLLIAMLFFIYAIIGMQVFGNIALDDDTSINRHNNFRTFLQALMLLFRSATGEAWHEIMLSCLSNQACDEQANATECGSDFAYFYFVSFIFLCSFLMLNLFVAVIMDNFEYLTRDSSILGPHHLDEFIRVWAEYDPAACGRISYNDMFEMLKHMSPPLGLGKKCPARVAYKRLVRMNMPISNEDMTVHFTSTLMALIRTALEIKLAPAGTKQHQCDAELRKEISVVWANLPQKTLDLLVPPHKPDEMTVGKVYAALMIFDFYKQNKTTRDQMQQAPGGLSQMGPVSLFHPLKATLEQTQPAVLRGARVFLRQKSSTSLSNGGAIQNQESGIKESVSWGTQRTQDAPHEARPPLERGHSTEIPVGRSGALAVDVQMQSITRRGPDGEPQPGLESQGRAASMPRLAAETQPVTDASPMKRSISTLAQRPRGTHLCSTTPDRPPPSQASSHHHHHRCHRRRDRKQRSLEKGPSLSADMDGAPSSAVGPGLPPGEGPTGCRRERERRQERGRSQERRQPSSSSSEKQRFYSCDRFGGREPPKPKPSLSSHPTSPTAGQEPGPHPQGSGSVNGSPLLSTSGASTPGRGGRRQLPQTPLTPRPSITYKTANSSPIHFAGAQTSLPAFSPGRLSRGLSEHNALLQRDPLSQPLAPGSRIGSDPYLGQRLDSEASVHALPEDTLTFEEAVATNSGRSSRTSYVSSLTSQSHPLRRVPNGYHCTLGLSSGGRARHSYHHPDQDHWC
T2 sequence (P54289 25-944 partner limits assumed): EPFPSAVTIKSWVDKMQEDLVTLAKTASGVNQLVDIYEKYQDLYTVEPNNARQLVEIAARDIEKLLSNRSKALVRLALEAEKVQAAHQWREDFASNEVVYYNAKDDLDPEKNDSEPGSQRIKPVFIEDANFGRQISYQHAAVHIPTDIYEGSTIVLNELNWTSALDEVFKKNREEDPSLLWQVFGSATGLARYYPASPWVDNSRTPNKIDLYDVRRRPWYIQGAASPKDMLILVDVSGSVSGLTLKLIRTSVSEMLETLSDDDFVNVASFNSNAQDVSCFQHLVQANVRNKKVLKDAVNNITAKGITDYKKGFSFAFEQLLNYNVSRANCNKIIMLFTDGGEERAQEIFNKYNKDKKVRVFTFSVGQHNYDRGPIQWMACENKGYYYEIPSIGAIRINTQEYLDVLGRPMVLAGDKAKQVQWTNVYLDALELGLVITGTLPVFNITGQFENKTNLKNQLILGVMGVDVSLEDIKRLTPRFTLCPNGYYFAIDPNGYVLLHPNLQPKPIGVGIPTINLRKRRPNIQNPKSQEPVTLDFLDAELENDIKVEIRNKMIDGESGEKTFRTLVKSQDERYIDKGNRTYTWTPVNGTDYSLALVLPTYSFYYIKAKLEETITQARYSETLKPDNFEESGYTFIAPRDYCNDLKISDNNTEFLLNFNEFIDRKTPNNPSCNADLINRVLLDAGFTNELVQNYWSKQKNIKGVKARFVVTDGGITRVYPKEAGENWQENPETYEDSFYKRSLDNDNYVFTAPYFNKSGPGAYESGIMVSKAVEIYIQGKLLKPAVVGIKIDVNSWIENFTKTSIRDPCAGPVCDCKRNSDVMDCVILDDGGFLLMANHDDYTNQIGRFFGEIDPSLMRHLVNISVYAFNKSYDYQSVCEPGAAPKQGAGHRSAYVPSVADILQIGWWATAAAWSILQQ
T2 sequence (P54289 945-1103 partner limits assumed): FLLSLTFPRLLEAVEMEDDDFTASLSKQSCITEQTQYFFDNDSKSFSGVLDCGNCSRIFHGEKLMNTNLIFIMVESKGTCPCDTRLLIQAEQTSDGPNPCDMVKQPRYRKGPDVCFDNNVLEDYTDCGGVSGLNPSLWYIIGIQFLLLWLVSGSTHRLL

Compound | IC50 [1] | IC50 [2] | activity in a number of models of ischemia and pain (N-type calcium channel)
CC(NC(=O)c1ccccc1)C(c1ccc(O)c(CN2CCCCCC2)c1)c1ccc(O)c(CN2CCCCCC2)c1 (stereo not drawn) [Example 21, N-[2,2-Bis-(3-azepan-1-ylmethyl-4-hydroxyphenyl)-1-methylethyl]benzamide oxalic acid salt] | 2200 nM | 14000 nM | –
O=C(NCC(c1ccc(O)c(CN2CCCCCC2)c1)c1ccc(O)c(CN2CCCCCC2)c1)c1ccccc1 [Example 19, N-[2,2-Bis-(3-azepan-1-ylmethyl-4-hydroxyphenyl)ethyl]-benzamide oxalic acid salt] | 2400 nM | 17000 nM | –
SNX-111: selective N-type calcium channel blocker, SNX-111 (CKGKGAKCSRLMYDCCTGSCRSGKC-NH2; disulfide 1-16, 15-25, 8-20; UniProt P05484 46-70, looked up) | – | – | demonstrated activity
CC(CCCN(Cc1ccccc1)Cc1ccccc1)(c1ccc(O)c(CN2CCCCCC2)c1)c1ccc(O)c(CN2CCCCCC2)c1 [Example 10, 4,4'-[4-[Bis(phenylmethyl)amino]-1-methylbutylidene]-bis[2-[(hexahydro-1H-azepin-1yl)methyl]phenol] oxalic acid salt] | 4200 nM | 430 nM | –
CC(CCC(O)(c1ccccc1)c1ccccc1)(c1ccc(O)c(CN2CCCCCC2)c1)c1ccc(O)c(CN2CCCCCC2)c1 [Example 3, 4,4'-(4-Hydroxy-1-methyl-4,4-diphenylbutylidene)bis[2-[(hexahydro-1H-azepin-1-yl)methyl]phenol] oxalic acid salt] | 1400 nM | 490 nM | –
CC(CCC(c1ccccc1)c1ccccc1)(c1ccc(O)c(CN2CCCCCC2)c1)c1ccc(O)c(CN2CCCCCC2)c1 [Example 6, 4,4'-(1-Methyl-4,4-diphenylbutylidene)bis[2-[(hexahydro-1H-azepin-1-yl)methyl]phenol] oxalic acid salt] | 3150 nM | 740 nM | –
O=C(NCC(c1ccc(O)c(CN2CCCCCC2)c1)c1ccc(O)c(CN2CCCCCC2)c1)C(c1ccccc1)c1ccccc1 [Example 20, N-[2,2 -Bis-(3-azepan-1-ylmethyl-4-hydroxyphenyl)ethyl]-2,2-diphenylacetamide oxalic acid salt] | 2400 nM | – | –
